Test results as given in the OligoGym collection.
HELM strings list units from the 5' end as sugar, base in round brackets, then linkage (d deoxyribose, r ribose, m 2'-O-methyl, p phosphodiester). Strings are as the collection lists them; they lack the last nucleoside at the 3' end of the tested compound. [moe] = 2'-O-(2-methoxyethyl) (MOE); [sp] = phosphorothioate linkage; [m5C] = 5-methylcytosine

Molecular target: SCN2A
Experiment: mouse, dose not given
Conditions: ASO

“RNA1{[moe](A)[sp].[moe]([m5C])p.[moe]([m5C])p.[moe]([m5C])p.[moe](A)[sp].d(G)[sp].d(T)[sp].d(T)[sp].d(T)[sp].d(T)[sp].d(T)[sp].d(T)[sp].d([m5C])[sp].[moe](A)p.[moe](T)p.[moe](T)[sp].[moe](G)}$$$$ (last 3' nucleoside missing)” gave a 3 h FOB score of 1.33 score 0-7.
“RNA1{[moe](A)[sp].[moe]([m5C])p.[moe]([m5C])p.[moe]([m5C])p.[moe](A)p.[moe](G)[sp].d(T)[sp].d(T)[sp].d(T)[sp].d(T)[sp].d(T)[sp].d(T)[sp].d([m5C])[sp].d(A)[sp].[moe](T)p.[moe](T)[sp].[moe](G)}$$$$ (last 3' nucleoside missing)” gave a 3 h FOB score of 2 score 0-7.
“RNA1{[moe](A)[sp].[moe]([m5C])p.[moe]([m5C])p.[moe]([m5C])p.[moe](A)p.d(G)[sp].d(T)[sp].d(T)[sp].d(T)[sp].d(T)[sp].d(T)[sp].d(T)[sp].d([m5C])[sp].d(A)[sp].d(T)[sp].[moe](T)p.[moe](G)p.[moe]([m5C])[sp].[moe](A)}$$$$ (last 3' nucleoside missing)” gave a 3 h FOB score of 0 score 0-7.
“RNA1{[moe](G)[sp].[moe](A)p.[moe](A)p.[moe](A)p.[moe](G)p.d(T)[sp].d(A)[sp].d(G)[sp].d(T)[sp].d(A)[sp].d([m5C])[sp].d([m5C])[sp].d(A)[sp].d(T)[sp].d(T)[sp].[moe]([m5C])p.[moe]([m5C])p.[moe]([m5C])[sp].[moe](A)}$$$$ (last 3' nucleoside missing)” gave a 3 h FOB score of 1.67 score 0-7.
With “RNA1{[moe](G)[sp].[moe](A)p.[moe](A)p.[moe](T)p.[moe](T)p.[moe]([m5C])p.d(T)[sp].d(A)[sp].d(T)[sp].d(T)[sp].d(T)[sp].d(T)[sp].d(A)[sp].d(T)[sp].d(A)[sp].d(A)[sp].[moe](A)p.[moe](T)[sp].[moe](G)}$$$$ (last 3' nucleoside missing)” the 3 h FOB score was 1 score 0-7.
Work on “RNA1{[moe](G)[sp].[moe](A)p.[moe](A)p.[moe](T)p.[moe](T)p.d([m5C])[sp].d(T)[sp].d(A)[sp].d(T)[sp].d(T)[sp].d(T)[sp].d(T)[sp].d(A)[sp].d(T)[sp].d(A)[sp].[moe](A)p.[moe](A)p.[moe](T)[sp].[moe](G)}$$$$ (last 3' nucleoside missing)” yielded a 3 h FOB score of 1 score 0-7.
In the case of “RNA1{[moe](G)[sp].[moe](A)p.[moe](A)p.[moe](T)p.d(T)[sp].d([m5C])[sp].d(T)[sp].d(A)[sp].d(T)[sp].d(T)[sp].d(T)[sp].d(T)[sp].d(A)[sp].d(T)[sp].[moe](A)p.[moe](A)p.[moe](A)p.[moe](T)[sp].[moe](G)}$$$$ (last 3' nucleoside missing)”, the 3 h FOB score is reported as 0.67 score 0-7.
“RNA1{[moe](G)[sp].[moe](A)p.[moe](G)p.[moe](A)p.[moe](G)p.d(A)[sp].d(T)[sp].d(T)[sp].d(G)[sp].d([m5C])[sp].d(T)[sp].d(T)[sp].d(T)[sp].d([m5C])[sp].d([m5C])[sp].[moe]([m5C])p.[moe](T)p.[moe](T)[sp].[moe](T)}$$$$ (last 3' nucleoside missing)” showed a 3 h FOB score of 1.33 score 0-7.
“RNA1{[moe](G)[sp].[moe](A)p.[moe](G)p.[moe](A)p.[moe](T)p.d(T)[sp].d(G)[sp].d([m5C])[sp].d(T)[sp].d(T)[sp].d(T)[sp].d([m5C])[sp].d([m5C])[sp].d([m5C])[sp].d(T)[sp].[moe](T)p.[moe](T)p.[moe](A)[sp].[moe](T)}$$$$ (last 3' nucleoside missing)” showed a 3 h FOB score of 1 score 0-7.
For “RNA1{[moe](G)[sp].[moe](A)p.[moe]([m5C])p.[moe](A)p.[moe](T)p.d(A)[sp].d(T)[sp].d(T)[sp].d(T)[sp].d(T)[sp].d(T)[sp].d([m5C])[sp].d(T)[sp].d(A)[sp].d([m5C])[sp].[moe](A)p.[moe]([m5C])p.[moe](T)[sp].[moe](G)}$$$$ (last 3' nucleoside missing)”, the 3 h FOB score was 1.67 score 0-7.
With “RNA1{[moe](G)[sp].[moe](A)p.[moe]([m5C])p.[moe](A)p.d(T)[sp].d(A)[sp].d(T)[sp].d(T)[sp].d(T)[sp].d(T)[sp].d(T)[sp].d([m5C])[sp].d(T)[sp].d(A)[sp].[moe]([m5C])p.[moe](A)p.[moe]([m5C])p.[moe](T)[sp].[moe](G)}$$$$ (last 3' nucleoside missing)” the 3 h FOB score was 1 score 0-7.
For “RNA1{[moe](G)[sp].[moe](A)p.[moe]([m5C])p.[moe]([m5C])p.[moe](A)p.[moe]([m5C])p.d(G)[sp].d([m5C])[sp].d(T)[sp].d(T)[sp].d(A)[sp].d([m5C])[sp].d(A)[sp].d(T)[sp].d([m5C])[sp].d(A)[sp].[moe](A)p.[moe](A)[sp].[moe]([m5C])}$$$$ (last 3' nucleoside missing)”, the 3 h FOB score was 0 score 0-7.
Substance “RNA1{[moe](G)[sp].[moe](A)p.[moe]([m5C])p.[moe]([m5C])p.[moe](G)p.[moe](A)p.d(A)[sp].d(T)[sp].d(T)[sp].d([m5C])[sp].d(T)[sp].d(A)[sp].d(T)[sp].d(T)[sp].d(T)[sp].d(T)[sp].[moe](A)p.[moe](T)[sp].[moe](A)}$$$$ (last 3' nucleoside missing)” has a 3 h FOB score of 0 score 0-7.
In the case of “RNA1{[moe](G)[sp].[moe](A)p.[moe]([m5C])p.[moe]([m5C])p.[moe](G)p.[moe](T)p.d([m5C])[sp].d(T)[sp].d([m5C])[sp].d(T)[sp].d(T)[sp].d(T)[sp].d([m5C])[sp].d(T)[sp].d(T)[sp].d(A)[sp].[moe](T)p.[moe](T)[sp].[moe](T)}$$$$ (last 3' nucleoside missing)”, the 3 h FOB score is reported as 0 score 0-7.
“RNA1{[moe](G)[sp].[moe](A)p.[moe]([m5C])p.[moe]([m5C])p.[moe](G)p.d(A)[sp].d(A)[sp].d(T)[sp].d(T)[sp].d([m5C])[sp].d(T)[sp].d(A)[sp].d(T)[sp].d(T)[sp].d(T)[sp].[moe](T)p.[moe](A)p.[moe](T)[sp].[moe](A)}$$$$ (last 3' nucleoside missing)” was tested, and the 3 h FOB score was 1 score 0-7.
“RNA1{[moe](G)[sp].[moe](A)p.[moe]([m5C])p.[moe]([m5C])p.[moe](G)p.d(T)[sp].d([m5C])[sp].d(T)[sp].d([m5C])[sp].d(T)[sp].d(T)[sp].d(T)[sp].d([m5C])[sp].d(T)[sp].d(T)[sp].[moe](A)p.[moe](T)p.[moe](T)[sp].[moe](T)}$$$$ (last 3' nucleoside missing)” was tested, and the 3 h FOB score was 0 score 0-7.
“RNA1{[moe](G)[sp].[moe](A)p.[moe]([m5C])p.[moe]([m5C])p.d(A)[sp].d([m5C])[sp].d(G)[sp].d([m5C])[sp].d(T)[sp].d(T)[sp].d(A)[sp].d([m5C])[sp].d(A)[sp].d(T)[sp].[moe]([m5C])p.[moe](A)p.[moe](A)p.[moe](A)[sp].[moe]([m5C])}$$$$ (last 3' nucleoside missing)” gave a 3 h FOB score of 4 score 0-7.
In the case of “RNA1{[moe](G)[sp].[moe](A)p.[moe]([m5C])p.[moe]([m5C])p.d(G)[sp].d(A)[sp].d(A)[sp].d(T)[sp].d(T)[sp].d([m5C])[sp].d(T)[sp].d(A)[sp].d(T)[sp].d(T)[sp].[moe](T)p.[moe](T)p.[moe](A)p.[moe](T)[sp].[moe](A)}$$$$ (last 3' nucleoside missing)”, the 3 h FOB score is reported as 0 score 0-7.
“RNA1{[moe](G)[sp].[moe](A)p.[moe]([m5C])p.[moe]([m5C])p.d(G)[sp].d(T)[sp].d([m5C])[sp].d(T)[sp].d([m5C])[sp].d(T)[sp].d(T)[sp].d(T)[sp].d([m5C])[sp].d(T)[sp].[moe](T)p.[moe](A)p.[moe](T)p.[moe](T)[sp].[moe](T)}$$$$ (last 3' nucleoside missing)” showed a 3 h FOB score of 0 score 0-7.
“RNA1{[moe](G)[sp].[moe](G)p.[moe](A)p.[moe](T)p.[moe](A)p.d(G)[sp].d(T)[sp].d(G)[sp].d([m5C])[sp].d(T)[sp].d([m5C])[sp].d([m5C])[sp].d(A)[sp].d(T)[sp].d(A)[sp].[moe](G)p.[moe]([m5C])p.[moe]([m5C])[sp].[moe](A)}$$$$ (last 3' nucleoside missing)” was tested, and the 3 h FOB score was 2 score 0-7.
“RNA1{[moe](G)[sp].[moe](G)p.[moe](A)p.[moe]([m5C])p.d([m5C])[sp].d(G)[sp].d(T)[sp].d([m5C])[sp].d(T)[sp].d([m5C])[sp].d(T)[sp].d(T)[sp].d(T)[sp].d([m5C])[sp].[moe](T)p.[moe](T)p.[moe](A)p.[moe](T)[sp].[moe](T)}$$$$ (last 3' nucleoside missing)” gave a 3 h FOB score of 1 score 0-7.
“RNA1{[moe](G)[sp].[moe](G)p.[moe](G)p.[moe](A)p.[moe](T)p.d(A)[sp].d(G)[sp].d(T)[sp].d(G)[sp].d([m5C])[sp].d(T)[sp].d([m5C])[sp].d([m5C])[sp].d(A)[sp].d(T)[sp].[moe](A)p.[moe](G)p.[moe]([m5C])[sp].[moe]([m5C])}$$$$ (last 3' nucleoside missing)” was tested, and the 3 h FOB score was 1.33 score 0-7.
In the case of “RNA1{[moe](G)[sp].[moe](G)p.[moe](T)p.[moe]([m5C])p.[moe](T)p.d([m5C])[sp].d(T)[sp].d(T)[sp].d(A)[sp].d(G)[sp].d([m5C])[sp].d(T)[sp].d(T)[sp].d(T)[sp].d([m5C])[sp].[moe](T)p.[moe]([m5C])p.[moe](T)[sp].[moe](T)}$$$$ (last 3' nucleoside missing)”, the 3 h FOB score is reported as 4 score 0-7.
“RNA1{[moe](G)[sp].[moe](T)p.[moe](A)p.[moe](A)p.[moe]([m5C])p.[moe]([m5C])p.d(T)[sp].d(T)[sp].d(T)[sp].d(A)[sp].d(T)[sp].d(A)[sp].d([m5C])[sp].d(A)[sp].d(T)[sp].d(T)[sp].[moe](T)p.[moe](A)[sp].[moe](A)}$$$$ (last 3' nucleoside missing)” gave a 3 h FOB score of 0 score 0-7.
Substance “RNA1{[moe](G)[sp].[moe](T)p.[moe](A)p.[moe](A)p.[moe]([m5C])p.d([m5C])[sp].d(T)[sp].d(T)[sp].d(T)[sp].d(A)[sp].d(T)[sp].d(A)[sp].d([m5C])[sp].d(A)[sp].d(T)[sp].[moe](T)p.[moe](T)p.[moe](A)[sp].[moe](A)}$$$$ (last 3' nucleoside missing)” has a 3 h FOB score of 0.33 score 0-7.
“RNA1{[moe](G)[sp].[moe](T)p.[moe](A)p.[moe](A)p.d(T)[sp].d([m5C])[sp].d(A)[sp].d([m5C])[sp].d(T)[sp].d(T)[sp].d(T)[sp].d([m5C])[sp].d(A)[sp].d(T)[sp].[moe]([m5C])p.[moe]([m5C])p.[moe](A)p.[moe]([m5C])[sp].[moe](G)}$$$$ (last 3' nucleoside missing)” was tested, and the 3 h FOB score was 2 score 0-7.
